Results published in US6302837A, “Benzothiophene, benzofuran and indole compounds” (Adir et Compagnie, priority 1999, dated 2001).

Target: recombinant active human PAI-1 (Homo sapiens, UniProt P05121)
Assay: Inhibition of the activity of PAI-1 in vitro (fibrin clot breakdown, turbidity)
Assay type: biochemical
Conditions: absorbance two hours after start of fibrin formation, 50 mM phosphate buffer pH 7.4, tissue plasminogen activator, fibrinogen, thrombin, read-out: IC50 (concentration of product that inhibits PAI-1 activity by 50%)
Method: Inhibition of the activity of PAI-1 was effected in vitro in microplate wells in which the formation and then breakdown of a fibrin clot is monitored continuously by measurement of its turbidity using a spectrophotometer. To do so, using, as diluent, a 50 mM phosphate buffer pH 7.4 containing 0.05% of bovine serum albumin, […] of the inhibitor is placed in the presence of 50 μl of a 2 nM solution of recombinant active human PAI-1 for 5 minutes at ambient temperature. 50 μl of a 0.42 nM solution of tissue plasminogen activator, 50 μl of an 800 nM solution of human plasminogen and 50 μl of a 2 g/liter solution of fibrinogen are then added and the fibrin formation is triggered by the addition of 50 μl of 14 nM purified human thrombin. In the absence of the product, inhibition of breakdown two hours after the start of fibrin formation is measured by the absorbance of the clot and represents 100% of the PAI-1 activity. In the absence of the product and of PAI-1, breakdown is measured by the absorbance of the broken-down clot and represents 0% of the PAI-1 activity. The concentration of product that inhibits PAI-1 activity by 50% is determined by measuring the absorbance of the clot two hours after fibrin formation in the presence of PAI-1 and of an increasing concentration of the product.

recombinant active human PAI-1, sequence (P05121 24-402): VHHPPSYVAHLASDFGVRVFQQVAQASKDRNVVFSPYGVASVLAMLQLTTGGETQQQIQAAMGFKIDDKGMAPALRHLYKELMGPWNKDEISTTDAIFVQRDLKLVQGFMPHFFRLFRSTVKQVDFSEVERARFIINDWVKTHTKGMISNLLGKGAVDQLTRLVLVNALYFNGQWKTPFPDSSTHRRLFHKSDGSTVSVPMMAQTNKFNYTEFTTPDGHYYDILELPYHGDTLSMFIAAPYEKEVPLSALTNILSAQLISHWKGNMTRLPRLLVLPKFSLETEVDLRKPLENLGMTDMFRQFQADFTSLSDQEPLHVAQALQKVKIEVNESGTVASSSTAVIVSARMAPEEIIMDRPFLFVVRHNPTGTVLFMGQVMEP

IC50 | Structure (SMILES)
130 nM | O=C(O)/C(=C/c1sc2cc(OCc3ccc(-c4ccccc4)cc3)c(OCc3ccc(-c4ccccc4)cc3)cc2c1Oc1ccc(Cl)cc1)c1ccncc1 [Example 2, (E)-3-[5,6-Bis-([1,1'-biphenyl]-4-ylmethoxy)-3-(4-chlorophenoxy)-benzo[b]thiophen-2-yl]-2-(4-pyridyl)2-propenoic acid]
530 nM | O=C(O)/C(=C/c1sc2cc(OCc3ccc(-c4ccccc4)cc3)c(OCc3ccc(-c4ccccc4)cc3)cc2c1Oc1cccnc1)c1ccncc1 [Example 10]
60 nM | O=C(O)/C(=C/c1sc2cc(OCc3ccc(-c4ccccc4)cc3)c(OCc3ccc(-c4ccccc4)cc3)cc2c1Oc1ccccc1)c1ccncc1 [Example 26, (E)-3-[5,6-Bis([1,1'-biphenyl]-4-ylmethoxy)-3-phenoxy-benzo[b]thiophen-2-yl]-2-(4-pyridyl)-2-propenoic acid]
